Results on four compounds are retold here after paper PMC12374861, “Synthetic Peptides Suppress Nervous Necrosis Virus Absorption and Improve Survival Rates in European Sea Bass” (Marine Biotechnology (New York, N.y.), 2025).

Ends that are not written are not given here.

Data set [1] has as its system SJNNV. In kind it is cell-based, striped jack nervous necrosis virus (strain SJNag97). As to conditions: virus (MOI 0.01) incubated with 500 μg/mL peptide for 15 min at 25 °C, titrated in E-11 cells; control virus + PBS; representative of two independent assays; Fig. 2B. The method, then:
(§1) Parental RGNNV (strain It/411/96), SJNNV (strain SJNag97), and reassortant isolates (RGNNV/SJNNV, 367.2.2005; SJNNV/RGNNV, 389/I96) were used. Viruses were propagated in E − 11 cells cultured in L-15 Leibovitz medium (BioWest) supplemented with 5% FBS, 2 mM L-glutamine, and 100 IU/mL penicillin/streptomycin (Thermo Fisher Scientific) at 25 °C. Infected monolayers were incubated at 25 °C until extensive cytopathic effect (CPE) developed. Supernatants were then harvested, centrifuged, and titrated in triplicate using the end-point dilution method, expressed as TCID₅₀/mL (Reed and Müench [1938]).
(§2) For in vitro antiviral assays, viral cultures (MOI 0.01) from parental and reassortant strains were incubated with peptides (single or combined) using a non-lethal concentration previously tested (500 μg/mL; León et al. [2020]), for 15 min at 25 °C with gentle agitation. Controls were virus samples incubated with PBS (100% viral activity). Treated samples were titrated as previously. After medium removal, cells were exposed to ten-fold viral dilutions in 2% FBS. CPE was monitored daily for 10 days, and viral titres were calculated as TCID₅₀/mL (Reed and Müench [1938]) and expressed as viral titre or percent inhibition relative to controls.
Fig. 2 Designed peptides, single or combined, reduce the NNV absorption in vitro. NNV parental or reassortant genotypes were incubated with 500 μg/mL of the synthetic peptides for 15 min. Then, the viruses were titrated in the E − 11 cell line. Control samples consisted on virus incubated with the same amount of phosphate buffer saline. (A) Viral titer (TCID50/mL) and (B) % of virus inhibition with respect to the controls are represented. Data are representative of two independent assays. […] Each bar was matched to a substance by its colour and by the order of the legend.

Data set [2] deals with RGNNV/SJNNV reassortant. Briefly: In vitro antiviral (competition) assay: virus incubated with peptide, then titrated in E-11 cells. In kind it is cell-based, RGNNV/SJNNV reassortant (367.2.2005). To be noted: virus (MOI 0.01) incubated with 500 μg/mL peptide for 15 min at 25 °C, control virus + PBS, representative of two independent assays, Fig. 2B. The protocol: as §1, §2
Fig. 2 Designed peptides, single or combined, reduce the NNV absorption in vitro. […]

For data set [3], the system named is RGNNV. Briefly: RGNNV in vivo bath challenge of European sea bass with peptide injection after infection. Also noted: species or system European sea bass (Dicentrarchus labrax). As to conditions: for Relative percent survival (RPS): juvenile sea bass, bath infection 3.16 × 10^4 TCID₅₀ RGNNV/mL for 2 h, then intramuscular injection 1 µg peptide/g, 23 dpi, infected PBS group 63.6% survival; for RGNNV cp gene expression in the brain / RGNNV rdrp gene expression in the brain: qPCR relative to ef1a, 2 dpi, n = 6, 1 µg peptide/g i.m. after RGNNV bath challenge; for RGNNV cp gene expression in the brain: Fig. 5A; for RGNNV rdrp gene expression in the brain: Fig. 5B. The method, then:
RGNNV In vivo Challenge of European Sea Bass
A total of 375 sea bass were randomly assigned to eight experimental groups (in duplicate) and acclimated for 15 days. Seven groups were infected by immersion (10 L; 3.16 × 10^4 TCID₅₀ RGNNV/mL; 2 h), while a mock-infected control received conditioned medium. […] Combinations were selected according to the results obtained in the competitive in vitro assay against RGNNV (see below). Disease signs and mortalities were monitored daily for 23 days post-infection (dpi) using a four-rank scale (Valero et al. [2021a]). Fish (n = 6/group/time-point) were sampled at 2 and 23 dpi, euthanized with clove oil, bled, and weighed. Brain, NNV target tissue, and head-kidney, major hematopoietic tissue in fish, were dissected, frozen in TRIzol (Life Technologies), and stored at − 80 °C.
For viral load analysis, total RNA was extracted from sea bass brain and head-kidney using TRIzol (Life Technologies) and from E − 11 cells using the GenJET RNA Purification Kit (Thermo Fisher Scientific), following manufacturer protocols. One microgram of RNA was DNAse I-treated (1 U/µL; Thermo Scientific), and cDNA was synthesized using Superscript IV Reverse Transcriptase (Invitrogen). qPCR was performed on a QuantStudio 5 Flex (Applied Biosystems) to quantify cp, rdrp and mx genes using PowerUp SYBR Green reagents (Applied Biosystems). The protocol included a 95 °C hold, then 40 cycles (95 °C; 15 s) and 60 °C for 1 min. Relative expression was calculated using the 2^⁻ΔCt method (Livak and Schmittgen [2001]), with ef1a as the endogenous control. Primers (Supplementary Data S2) were validated by melting curve analysis and negative controls.
Fish mortality was analysed using Kaplan–Meier survival curves with log-rank (Mantel–Cox) tests for significance. Relative gene expression was evaluated by one-way ANOVA (p ≤ 0.05) followed by Tukey’s test. Viral kinetics were compared between P4-treated and untreated groups using Student’s t-test (p ≤ 0.05) at specific time points. All analyses were performed with IBM SPSS Statistics 20.
Fig. 4 Therapeutic administration of synthetic peptides improves survival and symptomatology in […] (RGNNV)-infected European sea bass juveniles. […] A mock-infected group was treated twice with only PBS. (A) Kaplan–Meier survival curves; (B) Heat-map representing the cumulated number of fish showing clinical signs of VER disease attending to their severity: (1) changes of the color of the skin, slower rhythm of swimming and/or slower reaction to external stimuli as feeding; (2) alterations in the swimming balance and/or erratic swimming spasms; (3) continuous erratic swimming; and (4) complete incapacity to keep balance, swim and/or move without external stimuli. VER, viral encephalopathy and retinopathy
Fig. 5 Therapeutic administration of synthetic peptides decreased viral loads in the brain without additional mx gene regulation in the sea bass juveniles head-kidney infected with red-spotted grouper nervous necrosis virus (RGNNV). […] A mock-infected group was treated twice with only PBS. (A–C) Transcription levels of RGNNV cp (A) and rdrp (B) genes in the brain and (C) mx gene in the head-kidney. Data represent the relative gene expression mean ± SEM (n = 6). Different letters indicate significant differences among groups according to the ANOVA (p < 0.05)

In data set [4] the test system is E-11 cells. Briefly: MTT cytotoxicity test on E-11 cells. In kind it is cell-based. As to conditions: 24 h at 25 °C, mean of n = 3, control = 100.0. The method, then: Synthetic peptides cytotoxicity on E − 11 cells was assessed using the MTT (Sigma) test with serial peptide dilutions (1000–4 µg/mL in L − 15 medium; n = 3; 24 h at 25 °C) as elsewhere (Cervera et al. [2024c]). Absorbance was measured at 570 nm (BMG Labtech); blanks lacked cells. Cell viability was calculated as the OD ratio of treated to untreated cells × 100, normalized at 690 nm.
Supplementary data S4: Cell viability (%) of E-11 cells after incubation with the synthetic peptides for 24 h. Data represent the mean ± SEM (n=3).
For orientation: Tetrazolium dyes change colour on reduction, which living cells bring about.

Data set [5] relates to NNV. To be noted: synthetic sea bass peptides, NNV infection; ref Cervera et al. [2024b], [2025]; cited from earlier work. The method, then: Since co-administered peptides disrupt RGNNV adsorption in vitro, we evaluated their therapeutic potential in vivo by administering them […]. […] Given RGNNV’s rapid organ colonisation (Valero et al. [2018]), treatments were administered 2 h post-infection to ensure viral establishment.

Data set [6] relates to RGNNV. Also noted: method as in Zhu et al. [2022]. To be noted: RGNNV-infected hybrid grouper; ref Zhu et al. [2022]; cited from earlier work. The protocol: Given RGNNV’s rapid organ colonisation (Valero et al. [2018]), treatments were administered 2 h post-infection to ensure viral establishment.

For PRLGHAARIFQRYA-NH2 [Peptide P3], in data set [1], the “% of virus inhibition with respect to the controls, SJNNV” value is 90%. In data set [2], the “% of virus inhibition with respect to the controls, RGNNV/SJNNV” value came out at 96.84%. Further, in data set [3], the “Relative percent survival (RPS)” value was 62.5%. Moreover, the “RGNNV cp gene expression in the brain” value in data set [3] is “lowered”. Besides, the “RGNNV rdrp gene expression in the brain” value in data set [3] is recorded as “lowered”. In addition, the “Viability (%) of E-11 cells, mean” value in data set [4] (peptide 0.00411 mg/mL) is on record as 89.4%; in data set [4] (peptide 0.01234 mg/mL) it was 93.2%; in data set [4] (peptide 0.03704 mg/mL), 96.3%; in data set [4] (peptide 0.11111 mg/mL) it was 89.8%; in data set [4] (peptide 0.33333 mg/mL) it was 90.9%; in data set [4] (peptide 1.00000 mg/mL), 101.7%.
Regarding Hepcidin, the Reduction of mortality in data set [5] was 30–35%.
On to `NC12CC3CC(CC(C3)C1)C2` [amantadine], for which the Improvement of survival in data set [6] is recorded as 44%.
With VSKASTVTGFGR-NH2 [Peptide P2], the “% of virus inhibition with respect to the controls, SJNNV” value in data set [1] was 90%. For the same compound, in data set [2], the “% of virus inhibition with respect to the controls, RGNNV/SJNNV” value came to 96.84%. Besides, the “Relative percent survival (RPS)” value in data set [3] is reported as 43.8%. Also, in data set [3], the “RGNNV cp gene expression in the brain” value was “no transcriptional effect”. The “RGNNV rdrp gene expression in the brain” value in data set [3] is given as “no transcriptional effect”. The “Viability (%) of E-11 cells, mean” value in data set [4] (peptide 0.00411 mg/mL) came out at 103.1%; in data set [4] (peptide 0.01234 mg/mL) it was 121.8%; in data set [4] (peptide 0.03704 mg/mL), 111.5%; in data set [4] (peptide 0.11111 mg/mL), 106.2%; in data set [4] (peptide 0.33333 mg/mL) it was 126.9%; in data set [4] (peptide 1.00000 mg/mL), 117.2%.
